Results taken from US9603858B2, “Compositions for preventing and treating an immune system disorder” (RAISIO NUTRITION LTD., priority 2010, dated 2017).

Assays:
[1] = system: PBMCs from asthma patients; experiment: Cytokine production in PHA stimulated PBMCs cultured ex vivo with sitostanol; assay type: cell-based, human; settings: sitostanol 1.2 μM, 52 hours PHA stimulation
From the text: 20 people were enrolled in the study: 10 asthma patients and 10 healthy controls. Healthy controls were matched to the asthma patients in sex, age and body mass index (BMI). Exclusion criteria were smoking, diabetes, autoimmune diseases, inflammatory diseases, and the use of plant stanol or plant sterol enriched food products. Blood was taken twice from each participant, with a four-week interval. Peripheral blood mononuclear cells (PBMCs) were isolated and cultured with either cholesterol or sitostanol added to the culture. The concentration of PBMCs in the test culture was the same as in blood naturally. The concentrations of sitostanol and cholesterol were 1.2 μM. After 52 hours of stimulation with PHA (phytohemagglutinin), cytokine concentrations in the culture medium were determined. Cholesterol was added as a control to see whether the observed effects were specific plant stanol effects.

TLR2 = biological target: T1, TLR2 (Homo sapiens, UniProt O60603); experiment: Mechanism of the Th1 shift: TLR2 activation; assay type: cell-based
T1 construct: endogenous in cells
T1 sequence (O60603 21-784): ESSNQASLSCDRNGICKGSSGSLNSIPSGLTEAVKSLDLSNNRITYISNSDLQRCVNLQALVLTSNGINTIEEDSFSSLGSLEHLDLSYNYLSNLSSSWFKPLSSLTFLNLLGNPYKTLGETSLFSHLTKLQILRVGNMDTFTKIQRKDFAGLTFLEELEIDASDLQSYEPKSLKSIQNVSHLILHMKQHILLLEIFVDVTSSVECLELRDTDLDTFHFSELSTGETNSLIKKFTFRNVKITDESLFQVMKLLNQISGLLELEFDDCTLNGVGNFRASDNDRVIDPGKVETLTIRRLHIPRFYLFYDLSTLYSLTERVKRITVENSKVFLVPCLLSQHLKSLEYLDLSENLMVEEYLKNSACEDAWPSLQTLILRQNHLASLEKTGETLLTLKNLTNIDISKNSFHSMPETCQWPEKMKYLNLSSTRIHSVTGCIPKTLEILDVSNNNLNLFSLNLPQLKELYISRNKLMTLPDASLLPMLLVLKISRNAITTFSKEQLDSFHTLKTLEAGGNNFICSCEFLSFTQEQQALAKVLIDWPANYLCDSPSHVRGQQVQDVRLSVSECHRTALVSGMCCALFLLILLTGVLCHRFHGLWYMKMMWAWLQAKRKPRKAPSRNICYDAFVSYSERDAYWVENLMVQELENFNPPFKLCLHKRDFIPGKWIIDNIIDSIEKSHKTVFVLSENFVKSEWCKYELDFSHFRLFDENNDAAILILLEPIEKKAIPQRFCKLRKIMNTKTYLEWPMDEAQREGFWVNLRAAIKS

SMILES: CC[C@H](CC[C@@H](C)[C@H]1CC[C@H]2[C@@H]3CC[C@H]4C[C@@H](O)CC[C@]4(C)[C@H]3CC[C@]12C)C(C)C [sitostanol]
- IFNγ concentration in the culture medium, change vs. control condition ([1]; FIG. 1): increases
- IL-2 concentration in the culture medium, change vs. control condition ([1]; FIG. 1): increases
- IL-10 production in PBMCs from asthma patients, change vs. control condition ([1]; FIG. 2): induces IL-10 production
- Th1 shift via activation of TLR2 (TLR2): induces this Th1 shift via activation of TLR2
